Biological target: T1, human neutrophil elastase (HNE) (Homo sapiens, UniProt P08246)
T1 construct: gene ELANE
T1 sequence (P08246 30-247): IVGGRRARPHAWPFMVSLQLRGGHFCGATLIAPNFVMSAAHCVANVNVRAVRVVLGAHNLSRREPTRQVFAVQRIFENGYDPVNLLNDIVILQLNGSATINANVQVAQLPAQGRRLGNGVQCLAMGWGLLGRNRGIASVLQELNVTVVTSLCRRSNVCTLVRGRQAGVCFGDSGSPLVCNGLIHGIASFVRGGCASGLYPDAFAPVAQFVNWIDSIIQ
Assay: chromogenic elastase assay (MeOSuc-AAPV-pNA, […] nm), dose-response
Format: biochemical

IC50	SMILES
203 µM	O=C(/C=C/c1ccc(O)c(O)c1)O[C@@H]1C[C@](O)(C(=O)O)C[C@@H](O)[C@H]1O [Cha, chlorogenic acid]
171 µM	O=C(/C=C/c1ccc(O)c(O)c1)O[C@@H]1C[C@](O)(C(=O)O)C[C@@H](OC(=O)/C=C/c2ccc(O)c(O)c2)[C@H]1O [Iso A, isochlorogenic acid A]

— article PMC12250763, “Synergistic and Antagonistic Mechanisms of Arctium lappa L. Polyphenols on Human Neutrophil Elastase Inhibition: Insights from Molecular Docking and Enzymatic Kinetics” (Molecules, 2025)
